Data set [1] concerns pooled human liver microsomes. Put plainly: Human liver microsome metabolic stability assay. It is filed as in vitro ADME. The settings on record: for % Remaining 30 min / % Remaining 60 min / % Remaining 120 min: pooled human liver microsomes 1.0 mg/mL, 1 μM test compound, 37° C. As to the method: The objectives of the present study were to determine the metabolic stability of the test compounds in pooled liver microsomal incubations and to perform full scan LC-MS analysis for the detection of major metabolites. Samples of the test compounds, exposed to pooled human liver microsomes, were analyzed using HPLC-MS (or MS/MS) detection. For determining metabolic stability, multiple reaction monitoring (MRM) was used to measure the disappearance of the test compounds. For metabolite detection, Q1 full scans were used as survey scans to detect the major metabolites.
Human liver microsomes were obtained from Absorption Systems L.P. (Exton, Pa.). The incubation mixture was prepared as follows:
The reaction mixture, minus cofactors, was prepared. An aliquot of the reaction mixture (without cofactors) was incubated in a shaking water bath at 37° C. for 3 minutes. Another aliquot of the reaction mixture was prepared as the negative control. The test compound was added into both the reaction mixture and the negative control at a final concentration of 1 μM. An aliquot of the reaction mixture was prepared as a blank control, by the addition of plain organic solvent (not the test compound). The reaction was initiated by the addition of cofactors (not into the negative controls), and then incubated in a shaking water bath at 37° C. Aliquots (200 μL) were withdrawn in triplicate at 0, 15, 30, 60, and 120 minutes and combined with 800 μL of ice-cold 50/50 acetonitrile/deionized water to terminate the reaction. The positive controls, testosterone and propranolol, were run simultaneously with the test compounds in separate reactions. All samples were analyzed using LC-MS (or MS/MS). An LC-MRM-MS/MS method was used for metabolic stability. Also, Q1 full scan LC-MS methods were performed on the blank matrix and the test compound incubation samples. The Q1 scans served as survey scans to identify any sample unique peaks that might represent the possible metabolites. The masses of these potential metabolites can be determined from the Q1 scans.
The test compounds were evaluated in the human liver microsome assay described above along with paroxetine as a control. The columns of Table 2 labelled “% remaining” refer to the percentage of each test compound remaining after 30, 60 and 120 minute intervals in the human microsomal assay.

For data set [2] the following is noted: cited from earlier work.
For data set [3] the following is noted: 30 mg oral solution, radiolabeled, healthy volunteers, cited from earlier work.
The target of data set [4] is T1, CYP2D6 (Homo sapiens, UniProt P10635). The settings on record: mechanism-based; cited from earlier work.
T1 sequence (P10635 whole entry): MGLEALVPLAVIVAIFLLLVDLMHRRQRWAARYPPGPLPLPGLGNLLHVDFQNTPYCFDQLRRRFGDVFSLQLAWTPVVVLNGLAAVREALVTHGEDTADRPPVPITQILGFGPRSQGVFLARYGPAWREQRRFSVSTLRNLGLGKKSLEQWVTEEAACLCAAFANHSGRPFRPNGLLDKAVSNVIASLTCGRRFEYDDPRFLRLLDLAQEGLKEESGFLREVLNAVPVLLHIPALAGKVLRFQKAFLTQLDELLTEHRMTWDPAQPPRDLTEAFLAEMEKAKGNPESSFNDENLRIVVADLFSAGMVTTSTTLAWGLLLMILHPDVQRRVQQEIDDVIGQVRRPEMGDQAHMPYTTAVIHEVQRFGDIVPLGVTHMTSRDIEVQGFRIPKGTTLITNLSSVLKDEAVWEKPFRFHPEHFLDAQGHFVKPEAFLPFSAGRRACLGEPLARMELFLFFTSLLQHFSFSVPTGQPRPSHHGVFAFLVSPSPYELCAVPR
In data set [5] the target is T1, CYP2D6. As to conditions: clinical; cited from earlier work.
The next data set concerns mice. Put plainly: Forced tail suspension test, immobility time. It is filed as in vivo. As to conditions: 15 mg/kg oral (as free base), versus vehicle control. As for the experimental part:
The product of Example 11 is tested at MDS Pharma by oral administration to mice (n=8) to determine its effect on total immobility time during forced tail suspension, using essentially the procedure of “Drug Discovery and Evaluation”, Vogel H G and Vogel W H (eds.), p. 304, 1997, Springer-Verlag, New York.

These results are taken from patent US20150196544A1, “NOVEL BENZO[d][1,3]-DIOXOL DERIVATIVES” (priority 2005, published 2015).

SMILES strings stand for the structures.

Turning to `Fc1ccc([C@@H]2CCNC[C@H]2COc2ccc3c(c2)OCO3)cc1` [Compound 1, (3S,4R)-3-((benzo[d][1,3]dioxol-5-yloxy)methyl)-4-(4-fluorophenyl)piperidine], the “stability in the microsome assay (in words)” value in data set [1] (human liver microsomes, summary of Table 2) is recorded as “relative stability”. Also, in data set [1], the “% Remaining 30 min” value was found to be 51%, the “% Remaining 60 min” value came to 51% and the “% Remaining 120 min” value is 44%. The “half-life, poor metabolizers versus extensive metabolizers” value in data set [2] (European cohort, low versus higher CYP2D6 activity) is listed as “approximately 3 fold”. Further, the “coefficients of variability across Cmax, Cmin and AUC” value in data set [2] (steady state, test population) is recorded as 30-70%. Besides, in data set [3] (10-day period), the “excreted in the feces as parent compound” value is “less than 1%”; the “excreted in the feces, total” value is recorded as “About 36%”; the “excreted in the urine as metabolites” value is reported as 62%; the “excreted in the urine as parent compound” value was 2%. In data set [3] (10-day post-dosing period), the “excreted in the urine, total” value is reported as “approximately 64%”. The “inactivation of CYP2D6 (in words)” value on CYP2D6 [4] is reported as “highly potent, mechanism based inactivator”. In addition, the “reduction in CYP2D6 activity (in words)” value at CYP2D6 [5] is “dose-dependent, highly significant reduction”.

For `CC(C)(C)OC(=O)N1CC[C@@H](c2ccc(F)cc2)[C@H](CO)C1` [Example 11, (3S,4R)-tert-butyl 4-(4-fluorophenyl)-3-(hydroxymethyl)piperidine-1-carboxylate], in the data set on mice, the “total immobility time during forced tail suspension” value was “statistical reduction”.

With `Cl.[2H]C1([2H])Oc2ccc(OC([2H])([2H])[C@@H]3CNCC[C@H]3c3ccc(F)cc3)cc2O1` [B, (3S,4R)-3-((2,2-dideuterobenzo[d][1,3]dioxol-5-yloxy)dideuteromethyl)-4-(4-fluorophenyl)piperidine hydrochloride], in data set [1], the “% Remaining 30 min” value was 22%, the “% Remaining 60 min” value amounted to 10% and the “% Remaining 120 min” value was determined as 6%.

As to `Cl.[2H]C1([2H])Oc2ccc(OC[C@@H]3CNCC[C@H]3c3ccc(F)cc3)cc2O1` [A, (3S,4R)-3-((2,2-dideuterobenzo[d][1,3]dioxol-5-yloxy)methyl)-4-(4-fluorophenyl)piperidine hydrochloride], in data set [1], the “% Remaining 30 min” value is 29%, the “% Remaining 60 min” value was determined as 26% and the “% Remaining 120 min” value is given as 16%.
